Data published in patent US11510964B2, “Macrocyclic peptides to decrease c-Myc protein levels and reduce cancer cell growth” (University of Kansas, priority 2017, dated 2022).
Non-standard residues stand in square brackets, D forms with d. Residues, ends and D or L forms follow the SMILES beside them.

Legend:
[1] = system: BPH-1 cells; test: Cell viability assay (Trypan Blue); type: cell-based; settings: BPH-1 normal prostate cells, 1-40 μM, 48 h
Protocol: The viability of prostate cancer cells was determined using Trypan Blue (Sigma) per the manufacturer's instructions. Cells were grown in 6 well plates to a density of 1×10^5 cells/well to 75% confluency and treated with compound in 0.5% DMSO at the indicated concentrations for 24-72 h, with 0.5% DMSO as the vehicle control. After treatment, the cell media from each well was collected. The cells were washed with phosphate buffer saline (PBS), trypsinized, and collected. All of the cells, combined media, and washes were centrifuged at 250×g for 5 min. The supernatant was discarded, and the cell pellet was resuspended in 500 μL PBS. Trypan blue (10 μL) was added to 100 μL of resuspended cells, and the solution incubated for 10 min. The cell number in 10 μL was then counted using a hematocytometer. Viable cells (not stained) were distinguished from dead cells (colored blue) and the % viable cells calculated as follows: [(number of white cells)/(number of total cells (white+blue))]*100 and compared with untreated cells.^16

[2] = system: PC-3 cells; test: Annexin V-APC/PI apoptosis assay; type: cell-based, human; settings: PC-3, 10 μM
Protocol: (§1) The extent of apoptosis was analyzed by detecting surface expression of phosphatidylserine on apoptotic cells using an Annexin V-APC/PI dual staining apoptosis detection kit I (BD Biosciences) according to the manufacturer's protocol. Following treatment of PC-3 cells with 10 μM [D-Trp]CJ-15,208 or vehicle for 24 h or 48 h, the cells were collected, washed twice with cold PBS, and resuspended in 1× binding buffer at a concentration of 1×10^6 cells/mL. Cell suspension (100 μL) was transferred to a 5 ml culture tube, and 5 μL of Annexin V-APC and 25 μL of PI (50 μg/mL) were added. The cells were incubated for 15 min at room temperature in the dark with gentle vortexing, 400 μL of 1× binding buffer was then added to each sample, and the samples were analyzed using a Beckman-Coulter MoFlo XDP flow cytometer within one hour. The number of viable, apoptotic and necrotic cells were quantified using FlowJo v10.0.7. The apoptosis fraction (%) was calculated as (number of apoptotic cells/the number of total cells observed)×100%.^38
Each experiment was performed in triplicate unless otherwise stated in the figure legend. GraphPad Prism 5 was used to determine IC50 values. Data represent the mean value+/−SEM. Compound vs. vehicle treated cells in the cell cycle phase and apoptosis experiments (FIGS. 5-8) were compared using the student's t-test, with a two-tailed, unpaired method, using the Prism software. The effects of compound vs. vehicle treatment on protein levels (FIG. 10) were evaluated by one-way ANOVA with Dunnett's test for multiple comparisons.

[3] = system: siRNA-transfected PC-3 cells; test: c-Myc knockdown, Annexin V-APC/PI apoptosis assay; type: cell-based, human; settings: 10 μM, 48 h
Protocol: as §1
PC-3 cells were seeded at a density of 2×10^6 cells in 10 cm plates and grown to 75-85% confluence in EMEM supplemented with 10% FBS and penicillin/streptomycin. […] Samples were analyzed using a BD FACSCanto-II cell analyzer and quantified in FlowJo v10.2. […]

[4] = system: PP2A in PC-3 cells; test: Western blot of p-PP2A/total PP2A protein levels; type: cell-based, human
Protocol: Cells were seeded in 6 well plates at a density of 1×10^5 cells/well and grown to 75% confluence. Cells were treated with [D-Trp]CJ-15,208 at the indicated concentrations. Cells were then harvested as described above, and the cell pellets lysed in RIPA buffer consisting of 10 mM Tris HCl, pH 8.0, 150 mM NaCl, 1 mM EDTA, 1% Triton-X-100, 0.1% SDS, 1% sodium deoxycholate, and a protease inhibitor cocktail #P8340 (Sigma). Cell lysates were centrifuged at 13×1000 rpm for 15 min and the supernatants collected. The total protein concentration was measured in cell lysates using the standard Bradford assay. SDS gel electrophoresis was performed using 4-20% polyacrylamide gel (BioRad). […] Signal densities of the protein bands were determined using ImageJ software (NIH) and normalized to the internal loading control (actin).
Each experiment was performed in triplicate unless otherwise stated in the figure legend. […] The effects of compound vs. vehicle treatment on protein levels (FIG. 10) were evaluated by one-way ANOVA with Dunnett's test for multiple comparisons.

[5] = mice, dose of 60 mg/kg; cited from earlier work

With O=C1N[C@H](Cc2c[nH]c3ccccc23)C(=O)N[C@@H](Cc2ccccc2)C(=O)N2CCC[C@@H]2C(=O)N[C@H]1Cc1ccccc1 [[D-Trp]CJ-15,208, cyclo[Phe-D-Pro-Phe-D-Trp]] (cyclo(F[dP]F[dW])) the “cell death (Trypan blue)” value [1] was “no evidence of cell death”, the “number of cells in early or late apoptosis” value ([2]; 24 h) was “No significant change” and the “increase of number of cells in early apoptosis vs. vehicle” value ([2]; 48 h) was 10 fold. For the same molecule, the “increase of number of cells in late apoptosis vs. vehicle” value ([2]; 48 h) was 3 fold, the early apoptosis ([3]; PC-3 transfected with nontargeting siRNA) was “significantly increased early apoptosis” and the early apoptosis ([3]; PC-3 transfected with siRNA against c-Myc) was “did not significantly affect”. The “total PP2A protein levels” value ([4]; PC-3, 48 h, vs. vehicle treated cells) was “not significantly different”, the p-PP2A levels ([4]; PC-3, concentrations ≥10 μM, 48 h) was “significantly reduced” and the toxicity [5] was “no evidence of toxicity”.
